The source of these data is patent publication US20100279995A1, “Novel Ansamycin Derivatives” (priority 2005, published 2010).

A short description of data set [1]: Cleavage assay in whole defibrinated rabbit blood. It counts as in vitro ADME. The method, then:
(§1) Cleavage Assays for Pro-Drugs of 18,21-dihydromacbecin
(§2) Assays to determine the rate of cleavage of the pro-drugs into their parent compounds were performed as described herein. These were carried out in plasma, blood or buffer. Mixed mouse, human or mixed rat plasma containing EDTA or heparin as an anti-coagulant was used or whole defibrinated rabbit blood (mouse and rat plasma and rabbit blood were obtained from Harlan-Sera Labs, human plasma was obtained from Biopredic International).
If using whole blood such as defibrinated whole rabbit blood the following protocol was used: The blood was thawed at 37° C. in a water bath. Blood was dispensed into individual 20 mL tubes for each test compound allowing 0.5 mL for each time point to be analysed. A tube containing blood was also included as a control. These tubes were incubated for 15 minutes at 37° C.
Each test compound was reconstituted in DMSO or other appropriate solvent. The blood was removed from the water bath and the compound was added to give a final concentration of 0.001-0.010 mg/mL keeping the final concentration of solvent below 5%. In the case of the control, an equivalent volume of DMSO or other solvent was added. Immediately after the addition of compound a 0.4 mL sample was taken from the tube, transferred to a 2 mL microfuge tube. The plasma was promptly returned to the 37° C. water bath. 0.4 mL samples were taken at regular time points (e.g. after 30 min and then hourly) and were immediately frozen at −80° C. To each 0.4 mL sample in its 2 mL microfuge tube was added 1.5 mL of 0.1 M potassium dihydrogen phosphate, this was inverted to mix. A stable internal standard (IS) in acetonitrile was added at 0.002 mg/mL. This was agitated for 5 min on an IKA shaker at 1500 rpm. Centrifugation at 5000 rpm for 5 min lead to a dense pellet made up of red blood cells and precipitated protein, and a pink/red supernatant. An Oasis HLB (333/60 mg) cartridge was equilibrated with 2 mL of methanol followed by 2 mL of water. […]
The HPLC conditions were: 10% B for 1 min followed by a linear gradient to 100% B over a period of 7 min and an isocratic period of 2 min at 100% B. The analytes were detected by UV absorbance at 255 nm and mass spectrometry using a Bruker Daltonics Esquire 3000+ mass spectrometer coupled to the HPLC. The analytes were quantified based on the extracted ion chromatogram. To ensure a reliable quantification, the linear response of the mass spectrometer was checked for the concentration range of interest.
Each compound was assessed for cleavage to 18,21-dihydromacbecin as follows. […] The samples were applied to a cartridge described above and analysed immediately using Analysis Method C.

A short description of data set [2]: Cleavage assay in phosphate buffer. Format: physicochemical. Conditions: cleavage to 18,21-dihydromacbecin. The method, then: as §1, §2
The stability of the test compounds in phosphate-buffered saline (PBS) of specific pH over the course of each experiment was also analysed using the same methodology.
After the final time point was sampled, the samples were extracted as follows. For each time point sample an Oasis MCX (3 cc/60 mg) or Oasis HLB (333/60 mg) cartridge was conditioned and equilibrated with 2 mL methanol followed by 2 mL water. 1.5 mL water and an internal standard (IS) at 0.002 mg/mL were added to each 0.4 mL plasma sample. This was loaded to the cartridge. The cartridge was washed with 2 mL water and the analytes were eluted in 2 ml MeOH. This extract was analysed without further treatment by LC/MS using the conditions described below.
The cleavage of compounds 1-3 was also measured in phosphate buffer as described in the General Methods—Cleavage Assay above at pH 7.2 and pH 7.4 and T1/2 values calculated as indicated in Table 5 below.

For another data set, the system named is PRXF DU-145 xenografts. Description: In vivo evaluation of antitumor efficacy in PRXF DU-145 xenografts. The arrangement: species or system nude mice. Conditions: 60 mg/kg/d i.p. on Days 0-4, 7-11, 14-18, 21, 24, 25, 28 and 29; recorded on day 31; p<0.001 vs vehicle control.
The test system of another data set is NCI-H460. Nature of the data set: Monolayer proliferation assay (modified propidium iodide). Format: cell-based, human. Conditions: 4 days exposure. An excerpt: (§3) In vitro evaluation of compounds for anticancer activity in a panel of 12 human tumour cell lines in a monolayer proliferation assay may be carried out at the Oncotest Testing Facility, Institute for Experimental Oncology, Oncotest GmbH, Freiburg.
(§4) The Oncotest cell lines were established from human tumor xenografts as described by Roth et al., (1999). The origin of the donor xenografts is described by Fiebig et al., (1999). Other cell lines were either obtained from the NCI (H460, SF-268, OVCAR-3, DU145, MDA-MB-231, MDA-MB-468) or purchased from DSMZ, Braunschweig, Germany (LNCAP).
(§5) All cell lines, unless otherwise specified, were grown at 37° C. in a humidified atmosphere (95% air, 5% CO2) in a ‘ready-mix’ medium containing RPMI 1640 medium, 10% fetal calf serum, and 0.1 mg/mL gentamicin (PAA, Cölbe, Germany).
(§6) A modified propidium iodide assay was used to assess the effects of the test compound(s) on the growth of twelve human tumour cell lines (Dengler et al., (1995)).
(§7) Briefly, cells were harvested from exponential phase cultures by trypsinization, counted and plated in 96 well flat-bottomed microtitre plates at a cell density dependent on the cell line (5-10.000 viable cells/well). After 24 h recovery to allow the cells to resume exponential growth, 0.010 mL of culture medium (6 control wells per plate) or culture medium containing macbecin was added to the wells. Each concentration was plated in triplicate. Compounds were applied in two concentrations (0.001 mM and 0.01 mM). Following 4 days of continuous exposure, cell culture medium with or without test compound is replaced by 0.2 mL of an aqueous propidium iodide (PI) solution (7 mg/L). To measure the proportion of living cells, cells are permeabilized by freezing the plates. After thawing the plates, fluorescence was measured using the Cytofluor 4000 microplate reader (excitation 530 nm, emission 620 nm), giving a direct relationship to the total number of viable cells.
(§8) Growth inhibition is expressed as treated/control×100 (% T/C).
(§9) In vitro evaluation of macbecin for anticancer activity in a panel of 12 human tumor cell lines in a monolayer proliferation assay was carried out as described in the general methods using a modified propidium iodide assay.

The next data set concerns SF-268. The data set is described as above. It counts as cell-based, human. Conditions: SF268, 4 days exposure.
Description: as §3, §4, §5, §6, §7, §8, §9

Another data set concerns DU145. Described as above. It counts as cell-based, human. Conditions: 4 days exposure.
Description: as §3, §4, §5, §6, §7, §8, §9

The test system of another data set is A498. The description is as above. It counts as cell-based, human. Conditions: 4 days exposure.
Description: as §3, §4, §5, §6, §7, §8, §9

The next data set deals with MDA-MB-231. Described as above. It counts as cell-based, human. Conditions: MDA231, 4 days exposure.
Description: as §3, §4, §5, §6, §7, §8, §9

A further data set relates to MEXF 394NL. The description is as above. Format: cell-based, human. Conditions: 4 days exposure.
Description: as §3, §4, §5, §6, §7, §8, §9

The subject of another data set is MDA-MB-468. The data set is described as above. It counts as cell-based, human. Conditions: MDA468, 4 days exposure.
Description: as §3, §4, §5, §6, §7, §8, §9

Another data set relates to OVCAR-3. Described as above. It counts as cell-based, human. Conditions: OVCAR3, 4 days exposure.
Description: as §3, §4, §5, §6, §7, §8, §9

For another data set, the system named is LNCAP. Described as above. It counts as cell-based, human. Conditions: 4 days exposure.
Description: as §3, §4, §5, §6, §7, §8, §9

A further data set relates to GXF 251L. The description is as above. It counts as cell-based, human. Conditions: 4 days exposure.
Description: as §3, §4, §5, §6, §7, §8, §9

In a further data set the test system is MCF-7. The data set is described as above. It counts as cell-based, human. Conditions: MCF7, 4 days exposure.
Description: as §3, §4, §5, §6, §7, §8, §9

The next data set concerns UXF 1138L. Described as above. It counts as cell-based, human. Conditions: 4 days exposure.
Description: as §3, §4, §5, §6, §7, §8, §9

The target of data set [3] is terminal deoxynucleotidyl transferase (Homo sapiens, UniProt P04053). Conditions: Ono et al., 1982; cited from earlier work.
The test system of another data set is Reverse transcriptase. Conditions: Ono et al., 1982; cited from earlier work.
Setting [4] is: Rabbit blood pH 7.3 (37° C.) Run 1.
Setting [5] is: Phosphate Buffer pH 7.2 (37° C.).
Where [6] appears, read: Phosphate Buffer pH 7.4 (37° C.).

terminal deoxynucleotidyl transferase, sequence (P04053 whole entry, species assumed): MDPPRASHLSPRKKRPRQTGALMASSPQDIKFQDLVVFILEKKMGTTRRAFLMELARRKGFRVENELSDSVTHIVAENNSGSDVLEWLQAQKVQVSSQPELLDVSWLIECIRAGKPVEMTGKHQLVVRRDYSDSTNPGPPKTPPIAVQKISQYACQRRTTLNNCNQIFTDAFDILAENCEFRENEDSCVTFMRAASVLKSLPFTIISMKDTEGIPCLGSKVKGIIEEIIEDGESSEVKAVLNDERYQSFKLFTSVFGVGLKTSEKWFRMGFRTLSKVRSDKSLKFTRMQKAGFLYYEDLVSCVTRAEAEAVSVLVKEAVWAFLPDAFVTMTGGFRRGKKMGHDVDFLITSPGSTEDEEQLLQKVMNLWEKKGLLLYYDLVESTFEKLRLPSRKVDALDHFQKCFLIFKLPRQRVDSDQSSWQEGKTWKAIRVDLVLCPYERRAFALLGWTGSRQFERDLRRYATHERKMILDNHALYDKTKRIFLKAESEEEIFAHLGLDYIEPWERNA

In the case of “18-O—(N,N′-diethylethylenediamine-N′-carbamoyl)-18,21-dihydromacbecin Hydrochloride Salt [Compound 3]”, the t1/2 in data set [1] (setting [4]) was determined as 2.67 h; in data set [2] (setting [5]), 4.6 h; in data set [2] (setting [6]), 2.67 h.
“18-O—(N,N′-dimethylethylenediamine-N′-carbamoyl)-18,21-dihydromacbecin Hydrochloride Salt [Compound 1]”: the “minimum T/C value” with PRXF DU-145 xenografts is listed as 24.3%. Besides, the t1/2 was 0.75 h in data set [1] (setting [4]), 0.817 h in data set [1] (Rabbit blood pH 7.3 (37° C.) Run 2), 1.07 h in data set [2] (setting [5]) and 0.817 h in data set [2] (setting [6]).
As for `CNCCNC(=O)Oc1cc2c(O)c(c1)C(OC)C(C)CC(OC)C(OC)C(C)C=C(C)C(OC(N)=O)C(C)C=CC=C(C)C(=O)N2.Cl` (stereo not shown) [Compound 2, 18-O—(N-methylethylenediamine-N′-carbamoyl)-18,21-dihydromacbecin Hydrochloride Salt], the t1/2 in [1] (setting [4]) was found to be 2.55 h; in data set [2] (setting [5]) it was 10.4 h; in [2] (setting [6]) it was 2.12 h.
`CO[C@H]1[C@@H](OC)C[C@H](C)[C@@H](OC)C2=CC(=O)C=C(NC(=O)/C(C)=C/C=C\[C@@H](C)[C@@H](OC(N)=O)/C(C)=C/[C@@H]1C)C2=O` [macbecin]: the “Test/Control (%) at drug concentration” value is on record as 21.5% with NCI-H460 (1 × 10−5 M); 110% with NCI-H460 (1 × 10−6 M); 20.5% with SF-268 (1 × 10−5 M); 95.5% in the data set on SF-268 (1 × 10−6 M); 14.5% in the data set with DU145 (1 × 10−5 M); 42% in the data set with DU145 (1 × 10−6 M). The “Test/Control (%) at drug concentration” value in the data set with A498 (1 × 10−5 M) turned out to be 82%; in the data set on A498 (1 × 10−6 M), 107.5%; in the data set on MDA-MB-231 (1 × 10−5 M) it was 34%; in the data set with MDA-MB-231 (1 × 10−6 M), 88%; with MEXF 394NL (1 × 10−5 M), 17%; in the data set with MEXF 394NL (1 × 10−6 M) it was 21%. Further, the “Test/Control (%) at drug concentration” value with MDA-MB-468 (1 × 10−5 M) is 4%; with MDA-MB-468 (1 × 10−6 M) it was 14.5%; in the data set with OVCAR-3 (1 × 10−5 M), 37.5%; in the data set with OVCAR-3 (1 × 10−6 M), 71%; in the data set on LNCAP (1 × 10−5 M) it was 27.5%; in the data set with LNCAP (1 × 10−6 M) it was 43.5%. The “Test/Control (%) at drug concentration” value with GXF 251L (1 × 10−5 M) is listed as 37%; with GXF 251L (1 × 10−6 M), 61%; in the data set on MCF-7 (1 × 10−5 M), 12%; in the data set on MCF-7 (1 × 10−6 M) it was 35.5%; in the data set with UXF 1138L (1 × 10−5 M) it was 19%; in the data set on UXF 1138L (1 × 10−6 M), 75.5%. The “terminal deoxynucleotidyl transferase activity inhibition” value in data set [3] is given as “not inhibited”. The “Reverse transcriptase activity inhibition” value with Reverse transcriptase is given as “not inhibited”.
